Key:
[1] = biological target: T1, hT1R2/hT1R3 sweet receptor expressed in an HEK293 cell line (Homo sapiens, UniProt Q7RTX0+Q8TE23); assay: In vitro hT1R2/hT1R3 sweet taste receptor activation assay (FLIPR, dose response); assay type: cell-based; conditions: read-out: EC50 for activation of a hT1R2/hT1R3 sweet receptor
T1 construct: expressed in transfected cells; host or cells: HEK293 derivative, clone S-9
T1 sequence (Q8TE23 20-839): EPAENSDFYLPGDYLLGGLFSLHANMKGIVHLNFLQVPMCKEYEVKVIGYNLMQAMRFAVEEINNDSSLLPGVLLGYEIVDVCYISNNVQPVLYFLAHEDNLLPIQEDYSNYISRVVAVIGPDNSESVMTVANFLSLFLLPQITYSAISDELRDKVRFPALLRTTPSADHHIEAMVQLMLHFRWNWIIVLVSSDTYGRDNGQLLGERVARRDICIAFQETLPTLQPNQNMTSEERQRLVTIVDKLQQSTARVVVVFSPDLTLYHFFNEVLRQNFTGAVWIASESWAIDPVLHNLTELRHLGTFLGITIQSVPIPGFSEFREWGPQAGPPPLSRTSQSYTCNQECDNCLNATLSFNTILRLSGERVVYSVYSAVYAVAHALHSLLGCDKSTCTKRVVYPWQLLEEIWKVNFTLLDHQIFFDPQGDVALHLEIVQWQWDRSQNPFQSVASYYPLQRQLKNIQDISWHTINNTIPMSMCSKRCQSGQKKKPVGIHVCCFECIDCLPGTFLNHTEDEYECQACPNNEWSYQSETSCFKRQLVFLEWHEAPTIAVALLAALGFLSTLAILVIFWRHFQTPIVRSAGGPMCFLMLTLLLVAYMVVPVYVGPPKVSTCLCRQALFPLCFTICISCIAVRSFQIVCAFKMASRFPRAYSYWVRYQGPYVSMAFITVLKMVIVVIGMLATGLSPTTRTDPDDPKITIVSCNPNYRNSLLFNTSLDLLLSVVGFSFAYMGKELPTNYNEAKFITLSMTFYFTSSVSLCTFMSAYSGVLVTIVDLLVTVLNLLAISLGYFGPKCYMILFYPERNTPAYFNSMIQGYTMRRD
T1 sequence (Q7RTX0 21-852): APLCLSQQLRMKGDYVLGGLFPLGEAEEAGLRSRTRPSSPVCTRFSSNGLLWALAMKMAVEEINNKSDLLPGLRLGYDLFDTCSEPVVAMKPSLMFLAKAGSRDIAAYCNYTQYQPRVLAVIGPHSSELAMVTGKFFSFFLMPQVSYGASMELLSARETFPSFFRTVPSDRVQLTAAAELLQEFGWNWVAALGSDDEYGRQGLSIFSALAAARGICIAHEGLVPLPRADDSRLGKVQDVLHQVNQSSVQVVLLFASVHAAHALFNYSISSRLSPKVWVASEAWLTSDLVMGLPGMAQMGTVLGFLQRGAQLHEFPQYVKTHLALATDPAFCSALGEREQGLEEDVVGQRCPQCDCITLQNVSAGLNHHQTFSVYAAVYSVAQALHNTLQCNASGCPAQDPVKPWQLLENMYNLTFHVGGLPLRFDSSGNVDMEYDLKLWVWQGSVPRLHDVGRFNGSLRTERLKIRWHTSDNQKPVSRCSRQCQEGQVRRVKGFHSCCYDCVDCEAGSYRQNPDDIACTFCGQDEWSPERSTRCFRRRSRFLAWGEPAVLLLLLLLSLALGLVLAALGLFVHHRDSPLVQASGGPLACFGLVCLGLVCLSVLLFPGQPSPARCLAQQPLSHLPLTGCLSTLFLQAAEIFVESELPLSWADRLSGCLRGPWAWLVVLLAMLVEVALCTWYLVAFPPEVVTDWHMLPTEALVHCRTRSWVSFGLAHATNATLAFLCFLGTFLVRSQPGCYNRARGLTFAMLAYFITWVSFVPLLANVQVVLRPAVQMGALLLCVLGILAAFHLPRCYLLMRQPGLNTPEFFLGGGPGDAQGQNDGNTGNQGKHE
Excerpt: An HEK293 cell line derivative (see Chandrashekar, J., Mueller, K. L., Hoon, M. A., Adler, E., Feng, L., Guo, W., Zuker, C. S., Ryba, N. J.,. Cel,l 2000, 100, 703-711.) that stably expresses Gα15 and hT1R2/hT1R3 (see Li, X., Staszewski, L., Xu, H., Durick, K., Zoller, M., Adler, E. Proc Natl Acad Sci USA 2002, 99, 4692-4696, and PCT Publication No. WO 03/001876) was used to identify compounds with sweet taste enhancing properties. These references are hereby incorporated herein by reference for their methods of preparing and maintaing the cell lines discussed below, and for their methods for screeing compounds that inhibit the biological receptors.
Compounds covered in this document were initially selected based on their activity on the hT1R2/hT1R3—HEK293-Gα15 cell line (Li, et al. vide supra). Activity was determined using an automated fluorometric imaging assay on a FLIPR instrument (Fluorometric Intensity Plate Reader, Molecular Devices, Sunnyvale, Calif.) (designated FLIPR assay). Cells from one clone (designated S-9 cells) were seeded into 384-well plates (at approximately 50,000 cells per well) in a medium containing DMEM Low Glucose (Invitrogen, Carlsbad, Calif.), 10% dialyzed fetal bovine serum (Invitrogen, Carlsbad, Calif.), 100 Units/ml Penicillin G, and 100 μg/ml Streptomycin (Invitrogen, Carlsbad, Calif.) (Li, et al. vide supra) see also World Patent No. WO 03/001876 A2). S-9 cells were grown for 24 hours at 37° C. S-9 cells were then loaded with the calcium dye Fluo-3AM (Molecular Probes, Eugene, Oreg.), 4 μM in a phosphate buffered saline (D-PBS) (Invitrogen, Carlsbad, Calif.), for 1 hour at room temperature. After replacement with 25 μl D-PBS, stimulation was performed in the FLIPR instrument and at room temperature by the addition of 25 μl D-PBS supplemented with different stimuli at concentrations corresponding to twice the desired final level. Receptor activity was quantified by determining the maximal fluorescence increases (using a 480 nm excitation and 535 nm emission) after normalization to basal fluorescence intensity measured before stimulation.
For dose-responses analysis, stimuli were presented in duplicates at 10 different concentrations ranging from 60 nM to 30 μM. Activities were normalized to the response obtained with 400 mM D-fructose, a concentration that elicits maximum receptor response. EC50s were determined using a non-linear regression algorithm (using a Senomyx, Inc. software), where the Hill slope, bottom asymptotes and top asymptotes were allow to vary. Identical results were obtained when analyzing the dose-response data using commercially available software for non-linear regression analysis such as GraphPad PRISM (San Diego, Calif.).

For `CC(C)Oc1ccc(NC(=S)NCc2ccsc2)cc1` [Example 3, 1-(4-Isopropoxyphenyl)-3-(thiophen-3-ylmethyl)thiourea], the EC50 [1] was 150 nM and the melting point was 80.5 to 81.5 °C.
In the case of `CC(C)Oc1ccc(NC(=S)NCc2ccoc2)cc1` [Example 4, 1-(furan-3-ylmethyl)-3-(4-isopropoxyphenyl)thiourea], the EC50 [1] is reported as 230 nM and the melting point is reported as 89 to 90 °C.
For `COc1ccc(CNc2ccccc2C)cc1O` [Example 12, 5-((o-toluidino)methyl)-2-methoxyphenol], the EC50 [1] was 2980 nM and the melting point was 104 to 105 °C.
